Experimental findings from PubChem BioAssay AID248 (DTP/NCI, 2004) are described below.

Values joined by “and” are separate entries in the source; they are usually repeats but may differ in a detail not shown here. Identical values can stand only once. Toxic doses and inconclusive results are not listed.

The experiment concerns L1210 leukemia ip in BDF1 mice, survival T/C. Briefly: NCI In Vivo Anticancer Drug Screen. Data for tumor model L1210 Leukemia (intraperitoneal) in B6D2F1 (BDF1) mice. The note with it: endpoint: mean survival time, higher = longer survival. Put shortly:
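Read-out is survival time, reported as the treated-group measurement over the vehicle-control measurement.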

The mark [1] stands for this setting: dose: 100.0 mg/kg/injection, schedule: Q01DX009 (ip), vehicle: saline.
Where [2] appears, read: dose: 100.0 mg/kg/injection, schedule: Q04DX003 (ip), vehicle: saline.
Where [3] appears, read: dose: 200.0 mg/kg/injection, schedule: Q01DX009 (ip), vehicle: saline.
Where [4] appears, read: dose: 200.0 mg/kg/injection, schedule: Q04DX003 (ip), vehicle: saline.
Where [5] appears, read: dose: 400.0 mg/kg/injection, schedule: Q01DX009 (ip), vehicle: saline.
[6] abbreviates: dose: 400.0 mg/kg/injection, schedule: Q04DX003 (ip), vehicle: saline.
[7] abbreviates: dose: 100.0 mg/kg/injection, schedule: Q01DX001 (ip), vehicle: saline with Tween-80.
Where [8] appears, read: dose: 200.0 mg/kg/injection, schedule: Q01DX001 (ip), vehicle: saline with Tween-80.
Where [9] appears, read: dose: 100.0 mg/kg/injection, schedule: Q01DX009 (ip), vehicle: saline with Tween-80.
The mark [10] stands for this setting: dose: 100.0 mg/kg/injection, schedule: Q04DX003 (ip), vehicle: saline with Tween-80.
Setting [11] is: dose: 200.0 mg/kg/injection, schedule: Q01DX009 (ip), vehicle: saline with Tween-80.
[12] abbreviates: dose: 200.0 mg/kg/injection, schedule: Q04DX003 (ip), vehicle: saline with Tween-80.
[13] abbreviates: dose: 400.0 mg/kg/injection, schedule: Q01DX009 (ip), vehicle: saline with Tween-80.
[14] abbreviates: dose: 400.0 mg/kg/injection, schedule: Q04DX003 (ip), vehicle: saline with Tween-80.
The mark [15] stands for this setting: dose: 100.0 mg/kg/injection, schedule: Q04DX003 (ip), vehicle: Klucel (hydroxypropylcellulose) (HPC).
[16] abbreviates: dose: 200.0 mg/kg/injection, schedule: Q04DX003 (ip), vehicle: Klucel (hydroxypropylcellulose) (HPC).
[17] abbreviates: dose: 400.0 mg/kg/injection, schedule: Q04DX003 (ip), vehicle: Klucel (hydroxypropylcellulose) (HPC).
The mark [18] stands for this setting: dose: 50.0 mg/kg/injection, schedule: Q04DX002 (ip), vehicle: Klucel (hydroxypropylcellulose) (HPC).
The mark [19] stands for this setting: dose: 100.0 mg/kg/injection, schedule: Q04DX002 (ip), vehicle: Klucel (hydroxypropylcellulose) (HPC).
[20] abbreviates: dose: 100.0 mg/kg/injection, schedule: Q04DX002 (ip), vehicle: saline with Tween-80.
Setting [21] is: dose: 200.0 mg/kg/injection, schedule: Q04DX002 (ip), vehicle: saline with Tween-80.
Setting [22] is: dose: 100.0 mg/kg/injection, schedule: Q01DX009 (ip), vehicle: Klucel (hydroxypropylcellulose) (HPC).
[23] abbreviates: dose: 200.0 mg/kg/injection, schedule: Q01DX009 (ip), vehicle: Klucel (hydroxypropylcellulose) (HPC).

As to `O=C(O)CNCc1ccc(Cl)c(Cl)c1`, the T/C runs as follows: (dose: 75.0 mg/kg/injection, schedule: Q01DX009 (ip), vehicle: saline) 100 % of control; under setting [1], 97 % of control and 120 % of control; under setting [2], 96 % of control; (dose: 150.0 mg/kg/injection, schedule: Q01DX009 (ip), vehicle: saline) 99 % of control; under setting [3], 111 % of control; under setting [4], 102 % of control. Moreover, the T/C under setting [5] was 95 % of control and the T/C under setting [6] is 90 % of control.

Turning to `CC1=C(Cl)CS(=O)(=O)C1`, the T/C was 104 % of control under setting [7] and 100 % of control under setting [8].

As for `C=C(Br)CNC(=O)Nc1cccc2c1CCCC2`, the T/C is 94 % of control under setting [9]; 86 % of control under setting [10]; 97 % of control under setting [11]; 86 % of control under setting [12]; 92 % of control under setting [13]; 88 % of control under setting [14].

Take `CCC(=O)OC1(c2ccccc2)CCN(CCC(O)c2ccccc2)CC1C` (stereo not drawn): the T/C (dose: 20.0 mg/kg/injection, schedule: Q04DX003 (ip), vehicle: Klucel (hydroxypropylcellulose) (HPC)) was 105 % of control and the T/C (dose: 40.0 mg/kg/injection, schedule: Q04DX003 (ip), vehicle: Klucel (hydroxypropylcellulose) (HPC)) is 105 % of control.

`O=C(Nc1ccc(C2=NCCCN2)cc1)Nc1ccc(NC(=O)Nc2ccc(C3=NCCCN3)cc2)c(Cl)c1`: the T/C runs as follows: (dose: 62.0 mg/kg/injection, schedule: Q01DX Z (ip), vehicle: carboxymethylcellulose (CMC)) 163 % of control; (dose: 62.0 mg/kg/injection, schedule: Q01DX Z (oral), vehicle: carboxymethylcellulose (CMC)) 110 % of control; (dose: 125.0 mg/kg/injection, schedule: Q01DX Z (oral), vehicle: carboxymethylcellulose (CMC)) 110 % of control; (dose: 250.0 mg/kg/injection, schedule: Q01DX Z (oral), vehicle: carboxymethylcellulose (CMC)) 116 % of control; (dose: 500.0 mg/kg/injection, schedule: Q01DX Z (oral), vehicle: carboxymethylcellulose (CMC)) 111 % of control.

For the molecule `CCOC(=O)c1cnc(C)nc1C`, the T/C reads like this: under setting [1], 95 % of control; under setting [2], 103 % of control; under setting [3], 100 % of control; under setting [4], 98 % of control; under setting [5], 95 % of control; under setting [6], 98 % of control.

For the molecule `COC(=O)Cc1cc(C)n(C)c(=O)c1CN1C(=O)c2ccccc2C1=O`, the T/C is 102 % of control (dose: 100.0 mg/kg/injection, schedule: Q04DX003 (ip), vehicle: other); 107 % of control (dose: 200.0 mg/kg/injection, schedule: Q04DX003 (ip), vehicle: other); 98 % of control (dose: 400.0 mg/kg/injection, schedule: Q04DX003 (ip), vehicle: other).

For `C=CC1C(C(=O)Nc2ccccc2)CN1C` (stereo not drawn), the T/C is 107 % of control under setting [10], 107 % of control under setting [12] and 116 % of control under setting [14].

In the case of `O=C1C=CC(=O)N1CCCN1C(=O)C=CC1=O`, the T/C was 94 % of control (dose: 2.2 mg/kg/injection, schedule: Q01DX Z (ip), vehicle: methylcellulose (MC)); 88 % of control (dose: 3.3 mg/kg/injection, schedule: Q01DX Z (ip), vehicle: methylcellulose (MC)); 96 % of control (dose: 5.0 mg/kg/injection, schedule: Q01DX Z (ip), vehicle: methylcellulose (MC)).

Consider `CCOC(=O)c1cnc(SC)nc1NC(C)(C)C`, for which the T/C was 101 % of control under setting [15], 100 % of control under setting [16] and 94 % of control under setting [17].

Consider `Nc1ccc(Cl)nn1`, for which the T/C was 97 % of control (dose: 25.0 mg/kg/injection, schedule: Q04DX002 (ip), vehicle: Klucel (hydroxypropylcellulose) (HPC)); 97 % of control under setting [18]; 100 % of control under setting [19].

For `Cc1cc(Cl)ccc1NC(=O)c1ccc(Cl)c(Cl)c1`, the T/C is, setting by setting: under setting [9], 88 % of control; under setting [10], 100 % of control; under setting [11], 93 % of control; under setting [12], 96 % of control; under setting [13], 93 % of control; under setting [14], 94 % of control.

As to `CC(=O)NC1C(NC(=O)C(CC(=O)O)NC(=O)OCc2ccccc2)OC(COC(C)=O)C(OC(C)=O)C1OC(C)=O` (stereo not drawn), the T/C is, setting by setting: under setting [18], 94 % of control; under setting [19], 91 % of control.

For the molecule `CC(=O)ON1C(=O)c2cccc3cccc(c23)C1=O`, the T/C under setting [20] is 102 % of control and the T/C under setting [21] was 109 % of control.

On to `c1ccc(N=C(c2ccccc2)c2ccccc2)cc1`, for which the T/C is 102 % of control (dose: 50.0 mg/kg/injection, schedule: Q01DX001 (ip), vehicle: saline); 98 % of control (dose: 100.0 mg/kg/injection, schedule: Q01DX001 (ip), vehicle: saline); 98 % of control (dose: 200.0 mg/kg/injection, schedule: Q01DX001 (ip), vehicle: saline); 102 % of control (dose: 400.0 mg/kg/injection, schedule: Q01DX001 (ip), vehicle: saline).

`O=C1C2C3CCC(O3)C2C(=O)N1CSc1nc2ccccc2s1` (stereo not drawn): the T/C by setting is: under setting [7], 96 % of control; under setting [8], 90 % of control; (dose: 400.0 mg/kg/injection, schedule: Q01DX001 (ip), vehicle: saline with Tween-80) 95 % of control.

For `O=CC(NC(=O)C(O)C(O)C(O)C(O)CO)C(O)C(O)C(O)CO` (stereo not drawn), the T/C is, setting by setting: under setting [2], 102 % of control; under setting [4], 97 % of control; under setting [6], 91 % of control.

In the case of `C#CCCCOC(=O)Nc1ccccc1`, the T/C is, setting by setting: (dose: 50.0 mg/kg/injection, schedule: Q01DX009 (ip), vehicle: Klucel (hydroxypropylcellulose) (HPC)) 97 % of control; under setting [22], 103 % of control; under setting [23], 89 % of control.

With `CCC[CH2][Ge]([CH2]CCC)[CH2]CCC.CCC[CH2][Ge]([CH3])[CH2]CCC`, the T/C by setting is: under setting [20], 93 % of control; under setting [21], 89 % of control; (dose: 400.0 mg/kg/injection, schedule: Q04DX002 (ip), vehicle: saline with Tween-80) 93 % of control.

Turning to `Cc1cc(C)cc(OCC#CCN(C)c2ccccc2)c1`, the T/C is 99 % of control under setting [19]; 99 % of control (dose: 200.0 mg/kg/injection, schedule: Q04DX002 (ip), vehicle: Klucel (hydroxypropylcellulose) (HPC)); 96 % of control (dose: 400.0 mg/kg/injection, schedule: Q04DX002 (ip), vehicle: Klucel (hydroxypropylcellulose) (HPC)).

In the case of `O=c1[nH][nH]c(=O)c2nc3ccccc3nc12`, the T/C was 97 % of control under setting [22]; 94 % of control under setting [15]; 100 % of control under setting [23]; 97 % of control under setting [16]; 93 % of control (dose: 400.0 mg/kg/injection, schedule: Q01DX009 (ip), vehicle: Klucel (hydroxypropylcellulose) (HPC)); 92 % of control under setting [17].

`C[N+](C)(C)C1CC2CC1C2` (stereo not drawn): the T/C (dose: 75.0 mg/kg/injection, schedule: Q01DX001 (ip), vehicle: saline) was 97 % of control.

In the case of `c1cc[c]([Pb]([S]c2nc3ccccc3[nH]2)([c]2ccccc2)[c]2ccccc2)cc1`, the T/C was 104 % of control (dose: 3.12 mg/kg/injection, schedule: Q04DX002 (ip), vehicle: gum acacia); 101 % of control (dose: 6.25 mg/kg/injection, schedule: Q04DX002 (ip), vehicle: gum acacia); 97 % of control and 101 % of control (dose: 12.5 mg/kg/injection, schedule: Q04DX002 (ip), vehicle: gum acacia).
